# Molecular target: T1, Human Cav2.2 channels (Homo sapiens, UniProt Q00975)
# T1 construct: expressed in transfected cells
# Experiment: Fluorescent assay for Cav2.2 channels using potassium depolarization to initiate channel opening
# Format: cell-based
# Settings: for inhibition at 10 µM: 10 μM compound, read-out: Cav 2.2 Activity % Inh at 10 μM; for inhibition at 30 µM: 30 μM compound, read-out: Cav 2.2 Activity % Inh at 30 μM; for IC50: 30 mM K (block of open and inactivated channels), read-out: Cav 2.2 Activity IC50 at 30 mM K
# Excerpt: Human Cav2.2 channels were stably expressed in HEK293 cells along with alpha2-delta and beta subunits of voltage-gated calcium channels. An inwardly rectifying potassium channel (Kir2.3) was also expressed in these cells to allow more precise control of the cell membrane potential by extracellular potassium concentration. At low bath potassium concentration, the membrane potential is relatively negative, and is depolarized as the bath potassium concentration is raised. In this way, the bath potassium concentration can be used to regulate the voltage-dependent conformations of the channels. […] After the incubation period, Cav2.2 channel opening is triggered by addition of higher concentration of potassium (70 mM final concentration) to further depolarize the cell. The degree of state-dependent block can be estimated from the inhibitory potency of compounds after incubation in different potassium concentrations.
# Calcium influx through Cav2.2 channels is determined using a calcium sensitive fluorescent dye in combination with a fluorescent plate reader. Fluorescent changes were measured with either a VIPR (Aurora Instruments) or FLIPR (Molecular Devices) plate reader.
# • 1. Seed cells in Poly-D-Lysine Coated 96 or 384-well plate and keep in a 37° C.-10% CO2 incubator overnight • 2. […] Incubate in the dark at 25° C. for 60-70 min • 5. Remove dye, wash cells with 0.1 mL (96-well plate) or 0.06 mL (384-well plate) of 4, 12, 25, or 30 mM Potassium Pre-polarization Buffer (PPB) • 6. […] Incubate in the dark at 25° C. for 30 min • 8. Read cell plate on VIPR instrument, Excitation=480 nm, Emission=535 nm • 9. With VIPR continuously reading, add 0.1 mL (96-well plate) or 0.03 mL (384-well plate) of Depolarization Buffer (DB), which is 2× the final assay concentration, to the cell plate.
# T1 sequence (Q00975 whole entry): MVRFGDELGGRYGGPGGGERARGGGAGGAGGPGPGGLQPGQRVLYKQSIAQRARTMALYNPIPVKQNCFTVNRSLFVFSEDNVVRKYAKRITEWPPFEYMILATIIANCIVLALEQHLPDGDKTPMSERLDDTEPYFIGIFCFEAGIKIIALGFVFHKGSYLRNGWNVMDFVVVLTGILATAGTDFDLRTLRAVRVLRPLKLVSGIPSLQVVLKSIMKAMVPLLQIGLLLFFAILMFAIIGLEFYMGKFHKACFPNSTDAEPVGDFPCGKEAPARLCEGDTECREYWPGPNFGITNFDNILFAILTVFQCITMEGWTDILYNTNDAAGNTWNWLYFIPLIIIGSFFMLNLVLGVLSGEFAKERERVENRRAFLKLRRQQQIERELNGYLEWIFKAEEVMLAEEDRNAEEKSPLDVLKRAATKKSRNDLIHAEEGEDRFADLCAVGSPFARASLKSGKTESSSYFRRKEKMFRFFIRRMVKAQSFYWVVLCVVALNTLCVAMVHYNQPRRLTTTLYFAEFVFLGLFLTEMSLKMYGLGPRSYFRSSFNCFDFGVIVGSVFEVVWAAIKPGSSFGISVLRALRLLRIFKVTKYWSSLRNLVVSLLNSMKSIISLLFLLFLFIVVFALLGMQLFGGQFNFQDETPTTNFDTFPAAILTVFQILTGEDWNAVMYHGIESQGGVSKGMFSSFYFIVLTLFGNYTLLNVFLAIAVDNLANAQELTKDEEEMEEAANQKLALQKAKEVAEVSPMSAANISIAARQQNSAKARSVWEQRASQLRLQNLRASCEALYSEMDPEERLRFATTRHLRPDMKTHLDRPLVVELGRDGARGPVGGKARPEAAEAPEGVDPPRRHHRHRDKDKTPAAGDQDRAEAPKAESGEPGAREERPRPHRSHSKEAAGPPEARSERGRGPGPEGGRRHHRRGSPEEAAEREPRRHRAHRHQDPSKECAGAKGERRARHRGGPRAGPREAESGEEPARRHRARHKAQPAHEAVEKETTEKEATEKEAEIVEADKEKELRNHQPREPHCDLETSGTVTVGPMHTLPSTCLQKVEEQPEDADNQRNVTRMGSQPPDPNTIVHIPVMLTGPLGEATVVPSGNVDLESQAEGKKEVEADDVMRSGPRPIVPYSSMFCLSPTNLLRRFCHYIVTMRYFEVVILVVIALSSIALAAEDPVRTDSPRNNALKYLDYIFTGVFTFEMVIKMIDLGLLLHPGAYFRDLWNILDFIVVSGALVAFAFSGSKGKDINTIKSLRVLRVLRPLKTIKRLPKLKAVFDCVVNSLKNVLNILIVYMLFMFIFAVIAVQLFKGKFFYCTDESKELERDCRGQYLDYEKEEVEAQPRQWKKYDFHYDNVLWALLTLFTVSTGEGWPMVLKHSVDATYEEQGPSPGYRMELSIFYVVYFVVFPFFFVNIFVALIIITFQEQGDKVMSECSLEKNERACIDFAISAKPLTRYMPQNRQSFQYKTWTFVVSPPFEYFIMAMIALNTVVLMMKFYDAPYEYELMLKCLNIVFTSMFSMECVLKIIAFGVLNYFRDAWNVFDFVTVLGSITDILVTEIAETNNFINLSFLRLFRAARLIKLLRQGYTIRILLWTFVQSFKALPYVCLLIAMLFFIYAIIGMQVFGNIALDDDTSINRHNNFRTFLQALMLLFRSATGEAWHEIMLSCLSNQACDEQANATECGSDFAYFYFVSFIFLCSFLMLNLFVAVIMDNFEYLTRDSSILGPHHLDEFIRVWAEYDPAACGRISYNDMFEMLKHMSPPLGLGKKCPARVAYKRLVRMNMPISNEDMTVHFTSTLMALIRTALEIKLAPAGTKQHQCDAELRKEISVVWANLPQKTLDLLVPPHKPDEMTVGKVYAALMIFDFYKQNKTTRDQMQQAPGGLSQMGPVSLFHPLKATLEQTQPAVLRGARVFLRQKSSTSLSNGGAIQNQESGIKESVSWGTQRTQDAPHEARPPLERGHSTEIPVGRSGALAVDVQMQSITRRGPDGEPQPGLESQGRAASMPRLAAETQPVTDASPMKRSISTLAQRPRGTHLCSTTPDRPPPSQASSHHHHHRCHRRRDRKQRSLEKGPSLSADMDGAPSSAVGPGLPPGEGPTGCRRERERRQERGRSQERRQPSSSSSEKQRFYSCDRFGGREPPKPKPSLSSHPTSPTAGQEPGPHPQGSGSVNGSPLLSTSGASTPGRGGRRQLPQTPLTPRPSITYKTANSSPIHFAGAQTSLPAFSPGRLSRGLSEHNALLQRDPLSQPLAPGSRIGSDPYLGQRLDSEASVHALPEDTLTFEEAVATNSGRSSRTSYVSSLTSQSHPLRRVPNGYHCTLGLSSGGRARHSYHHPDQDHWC
# T1 sequence (P54289 25-1103 partner): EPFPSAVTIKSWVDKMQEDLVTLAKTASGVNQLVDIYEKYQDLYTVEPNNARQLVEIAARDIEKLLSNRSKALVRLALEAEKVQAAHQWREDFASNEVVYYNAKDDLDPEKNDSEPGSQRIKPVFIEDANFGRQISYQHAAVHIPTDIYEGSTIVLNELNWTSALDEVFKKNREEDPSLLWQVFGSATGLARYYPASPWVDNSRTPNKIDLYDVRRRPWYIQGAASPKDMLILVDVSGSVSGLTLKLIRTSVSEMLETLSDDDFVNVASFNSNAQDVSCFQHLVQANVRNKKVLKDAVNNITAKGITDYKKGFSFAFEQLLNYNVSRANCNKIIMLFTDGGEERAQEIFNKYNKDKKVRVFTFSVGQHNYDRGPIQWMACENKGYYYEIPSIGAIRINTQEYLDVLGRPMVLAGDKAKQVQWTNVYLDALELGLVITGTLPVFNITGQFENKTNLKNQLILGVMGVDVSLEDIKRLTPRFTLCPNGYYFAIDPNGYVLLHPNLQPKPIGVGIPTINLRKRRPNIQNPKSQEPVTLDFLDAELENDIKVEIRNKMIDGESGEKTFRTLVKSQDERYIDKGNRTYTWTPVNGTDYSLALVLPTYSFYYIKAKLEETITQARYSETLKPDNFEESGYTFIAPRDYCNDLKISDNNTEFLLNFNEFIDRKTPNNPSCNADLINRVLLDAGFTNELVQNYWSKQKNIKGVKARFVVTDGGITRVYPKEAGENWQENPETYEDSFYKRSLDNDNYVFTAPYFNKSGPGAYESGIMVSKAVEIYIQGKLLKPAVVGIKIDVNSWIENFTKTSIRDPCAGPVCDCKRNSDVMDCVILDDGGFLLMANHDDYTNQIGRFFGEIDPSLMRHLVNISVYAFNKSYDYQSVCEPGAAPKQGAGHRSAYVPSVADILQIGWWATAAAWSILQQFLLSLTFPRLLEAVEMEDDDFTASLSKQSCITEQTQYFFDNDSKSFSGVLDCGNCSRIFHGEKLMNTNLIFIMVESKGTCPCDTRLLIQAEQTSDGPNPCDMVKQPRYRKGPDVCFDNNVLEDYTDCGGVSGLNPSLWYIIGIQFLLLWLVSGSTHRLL
# T1 sequence (P54284 whole entry partner): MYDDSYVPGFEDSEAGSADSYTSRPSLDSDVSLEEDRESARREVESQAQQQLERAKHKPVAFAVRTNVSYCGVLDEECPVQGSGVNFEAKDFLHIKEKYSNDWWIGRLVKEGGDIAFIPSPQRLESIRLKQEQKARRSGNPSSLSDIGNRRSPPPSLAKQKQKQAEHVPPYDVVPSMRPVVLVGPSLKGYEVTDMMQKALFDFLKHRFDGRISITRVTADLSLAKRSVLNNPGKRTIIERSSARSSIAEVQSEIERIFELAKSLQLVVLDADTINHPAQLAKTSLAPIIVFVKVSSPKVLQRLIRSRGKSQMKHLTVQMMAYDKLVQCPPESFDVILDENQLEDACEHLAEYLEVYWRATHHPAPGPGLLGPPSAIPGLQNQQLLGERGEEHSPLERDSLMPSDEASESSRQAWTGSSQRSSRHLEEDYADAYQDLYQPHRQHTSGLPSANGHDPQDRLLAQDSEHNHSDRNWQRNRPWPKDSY
Structure (SMILES),inhibition at 10 µM [%],inhibition at 30 µM [%],IC50 [nM]
"CC(C)(C)c1cc(C(=O)NC2(C(=O)NCc3ccccc3)CCCCC2)cc(C(C)(C)C#N)c1 [Compound 70, N-(1-(benzylcarbamoyl)cyclohexyl)-3-tert-butyl-5-(2-cyanopropan-2-yl)benzamide]",89.8,96.3,27.4
"CC(C)(C#N)c1cc(C(=O)NC2(C(=O)NCc3cccc(C(F)(F)F)c3)CCCCC2)ccn1 [Compound 119, 2-(2-cyanopropan-2-yl)-N-(1-(3-(trifluoromethyl)benzylcarbamoyl)cyclohexyl)isonicotinamide]",63.1,,
"COc1ccc(CNC(=O)C2(NC(=O)c3cc(C(C)(C)C)cc(C(C)(C)C)c3)CCCC2)cc1 [Compound 37, 3,5-di-tert-butyl-N-(1-(4-methoxybenzylcarbamoyl)cyclopentyl)benzamide]",93,95.8,153
"CC(C)(C#N)c1cccc(C(=O)NC2(C(=O)NCc3cccc(C(F)(F)F)c3)CCCCC2)c1 [Compound 124, 3-(2-cyanopropan-2-yl)-N-(1-(3-(trifluoromethyl)benzylcarbamoyl)cyclohexyl)benzamide]",84.2,74,810
"CN(C)c1ccc(CNC(=O)C2(NC(=O)c3cc(C(C)(C)C)nc(C(C)(C)C)c3)CCCCC2)cc1 [Compound 77, 2,6-di-tert-butyl-N-(1-(4-(dimethylamino)benzylcarbamoyl)cyclohexyl)isonicotinamide]",48.7,66.9,574
"CC(C)(C(N)=O)c1cccc(C(=O)NC2(C(=O)NCc3cccc(C(F)(F)F)c3)CCCCC2)c1 [Compound 121, 3-(1-amino-2-methyl-1-oxopropan-2-yl)-N-(1-(3-(trifluoromethyl)benzylcarbamoyl)cyclohexyl)benzamide]",18.6,70.8,
"CC(C)(C#N)c1ccc(C(=O)NC2(C(=O)NCc3ccccc3)CCCCC2)cc1 [Compound 122, N-(1-(benzylcarbamoyl)cyclohexyl)-4-(2-cyanopropan-2-yl)benzamide]",45.2,80.5,
"CC(C)(C#N)c1cc(C(=O)NC2(C(=O)NCc3ccccc3)CCCCC2)cc(C(C)(C)C#N)c1 [Compound 41, N-(1-(benzylcarbamoyl)cyclohexyl)-3,5-bis(2-cyanopropan-2-yl)benzamide]",76,73.3,985
"Cc1cnc(CNC(=O)C2(NC(=O)c3cc(C(C)(C)C)nc(C(C)(C)C)c3)CC2)cn1 [Compound 11, 2,6-di-tert-butyl-N-(1-((5-methylpyrazin-2-yl)methylcarbamoyl)cyclopropyl)isonicotinamide]",91.9,92.2,336
"CC(C)(C)c1cc(C(=O)NC2(C(=O)NCc3ccccc3)CCCC2)cc(C(C)(C)C)n1 [Compound 95, N-(1-(benzylcarbamoyl)cyclopentyl)-2,6-di-tert-butylisonicotinamide]",94.6,101,132
"CC(C)(C)c1cc(C(=O)NC2(C(=O)NCc3ccc(Cl)cc3)CCCCC2)cc(C(C)(C)C)c1 [Compound 46, 3,5-di-tert-butyl-N-(1-(4-chlorobenzylcarbamoyl)cyclohexyl)benzamide]",96.6,97.9,77.9
"CC(C)(C)c1cc(C(=O)NC2(C(=O)NCc3cccc(C(F)(F)F)c3)CCCC2)cc(C(C)(C)C)c1 [Compound 39, 3,5-di-tert-butyl-N-(1-(3-(trifluoromethyl)benzylcarbamoyl)cyclopentyl)benzamide]",79.6,77.9,513
"CC(C)(C)c1cc(CNC2(C(=O)NCc3ccccc3)CCCCC2)cc(C(C)(C)C)c1 [Compound 57, N-benzyl-1-(3,5-di-tert-butylbenzylamino)cyclohexanecarboxamide]",99.8,101,868
"CC(C)(C)c1cc(C(=O)NC2(C(=O)NCc3ccncc3)CCCCC2)cc(C(C)(C)C)n1 [Compound 100, 2,6-di-tert-butyl-N-(1-(pyridin-4-ylmethylcarbamoyl)cyclohexyl)isonicotinamide]",,,154
"CC(C)(C)c1cc(C(=O)NC2(C(=O)Nc3ccccn3)CC2)cc(C(C)(C)C)n1 [Compound 20, 2,6-di-tert-butyl-N-(1-(pyridin-2-ylcarbamoyl)cyclopropyl)isonicotinamide]",100,,102
"N#CCc1cc(CC#N)cc(C(=O)NC2(C(=O)NCc3cccc(C(F)(F)F)c3)CCCCC2)c1 [Compound 61, 3,5-bis(cyanomethyl)-N-(1-(3-(trifluoromethyl)benzylcarbamoyl)cyclohexyl)benzamide]",18.7,56.4,

# Results, then the compound that gave them:
inhibition at 10 µM [%],inhibition at 30 µM [%],IC50 [nM],Structure (SMILES)
96.6,87.2,329,"CC(C)(C)c1cc(C(=O)NC2(C(=O)N3CCOCC3)CCCC2)cc(C(C)(C)C)n1 [Compound 94, 2,6-di-tert-butyl-N-(1-(morpholine-4-carbonyl)cyclopentyl)isonicotinamide]"
96.3,96.7,14.2,"COc1c(C(C)(C)C)cc(C(=O)NC2(C(=O)NCc3cnc(C)cn3)CCCCC2)cc1C(C)(C)C [Compound 88, 3,5-di-tert-butyl-4-methoxy-N-(1-((5-methylpyrazin-2-yl)methylcarbamoyl)cyclohexyl)benzamide]"
77.7,82.6,161,"COc1c(C(C)(C)C)cc(C(=O)NC2(C(=O)Nc3ccccc3)CCCCC2)cc1C(C)(C)C [Compound 96, 3,5-di-tert-butyl-4-methoxy-N-(1-(phenylcarbamoyl)cyclohexyl)benzamide]"
82.6,89.4,69.3,"CNC(=O)C1(NC(=O)c2cc(C(C)(C)C)c(OC)c(C(C)(C)C)c2)CCCCC1 [Compound 28, 3,5-di-tert-butyl-4-methoxy-N-(1-(methylcarbamoyl)cyclohexyl)benzamide]"
98.9,106,55.8,"COc1ccc(C(=O)NC2(C(=O)NCc3cc(C(C)(C)C)c(OC)c(C(C)(C)C)c3)CCCCC2)cc1 [Compound 74, N-(1-(3,5-di-tert-butyl-4-methoxybenzylcarbamoyl)cyclohexyl)-4-methoxybenzamide]"
96.7,102,138,"CC(C)(C)c1cc(C(=O)NC2(C(=O)NCc3ccc(S(C)(=O)=O)cc3)CCCCC2)cc(C(C)(C)C)c1O [Compound 112, 3,5-di-tert-butyl-4-hydroxy-N-(1-(4-(methylsulfonyl)benzylcarbamoyl)cyclohexyl)benzamide]"
104,107,123,"CC(C)(C)c1cc(C(=O)NC2(C(=O)NCc3ccccc3)CCCCC2)cc(C(C)(C)C)c1O [Compound 65, N-(1-(benzylcarbamoyl)cyclohexyl)-3,5-di-tert-butyl-4-hydroxybenzamide]"
,,81.6,"COc1c(C(C)(C)C)cc(C(=O)NC2(C(=O)NCc3ccc(S(C)(=O)=O)cc3)CCCCC2)cc1C(C)(C)C [Compound 108, 3,5-di-tert-butyl-4-methoxy-N-(1-(4-(methylsulfonyl)benzylcarbamoyl)cyclohexyl)benzamide]"
83.9,85.5,856,"CN1CCN(C(=O)C2(NC(=O)c3cc(C(C)(C)C)nc(C(C)(C)C)c3)CCCC2)CC1 [Compound 93, 2,6-di-tert-butyl-N-(1-(4-methylpiperazine-1-carbonyl)cyclopentyl)isonicotinamide]"
,,704,"COc1c(C(C)(C)C)cc(C(=O)NC2(C(=O)NCCCN3CCOCC3)CCCCC2)cc1C(C)(C)C [Compound 105, 3,5-di-tert-butyl-4-methoxy-N-(1-(3-morpholinopropylcarbamoyl)cyclohexyl)benzamide]"
97.8,97.4,145,"COc1c(C(C)(C)C)cc(CNC2(C(=O)NCc3ccccc3)CCCCC2)cc1C(C)(C)C [Compound 72, N-benzyl-1-(3,5-di-tert-butyl-4-methoxybenzylamino)cyclohexanecarboxamide]"
91.7,93.4,25.2,"COc1c(C(C)(C)C)cc(C(=O)NC2(C(=O)N3CCCC3)CCCCC2)cc1C(C)(C)C [Compound 30, 3,5-di-tert-butyl-4-methoxy-N-(1-(pyrrolidine-1-carbonyl)cyclohexyl)benzamide]"
,,1020,"COc1c(C(C)(C)C)cc(C(=O)NC2(C(=O)N3CCN(C)CC3)CCCCC2)cc1C(C)(C)C [Compound 104, 3,5-di-tert-butyl-4-methoxy-N-(1-(4-methylpiperazine-1-carbonyl)cyclohexyl)benzamide]"

# — patent publication US20090270394A1, “CYCLYLAMINE DERIVATIVES AS CALCIUM CHANNEL BLOCKERS” (priority 2008, published 2009)
